Reference: ChEMBL document CHEMBL6121001, “Benzimidazole analogues active against adult Schistosoma mansoni: SAR analyses, In vivo efficacy in mice, and preliminary mechanistic studies as potential inhibitors of hemozoin formation” (Eur J Med Chem, 2025)

assay: Apparent permeability of compound at 1 mM incubated for 4 hrs by PAMPA based LC-MS/MS analysis; assay type: ADME

Papp at 4 h, 1000 µM	Compound
0.18 ×10⁻⁶ cm/s	Oc1ncccc1CN1CCC(Nc2nc3ccccc3n2Cc2ccc(C(F)(F)F)cc2)CC1
18 ×10⁻⁶ cm/s	FC(F)(F)c1ccc(Cn2c(NC3CCN(Cc4ccccc4)CC3)nc3ccccc32)cc1
23 ×10⁻⁶ cm/s	Oc1ccccc1CN1CCC(Nc2nc3ccccc3n2Cc2ccc(C(F)(F)F)cc2)CC1
